Source: patent US12649750B2, “Macrocyclic compounds, compositions, and methods of using thereof” (Sionna Therapeutics Inc., priority 2022, dated 2026)

Molecular target: T1, NBD1 (Homo sapiens, UniProt P13569)
T1 construct: Purified recombinant NBD1 was produced using previously described methods; made in house
Experiment: Aggregation analysis using differential static light scattering (DSLS), thermal stability of NBD1 (ΔTagg)
Type: binding
Details: ΔTagg versus DMSO control, NBD1 0.2 mg/ml
Method: Example 386. Aggregation Analysis Using Differential Static Light Scattering (DSLS)
Purified recombinant NBD1 was produced using previously described methods (A. Schmidt, J. L. Mendoza, P. J. Thomas (2011) Biochemical and Biophysical Approaches to Probe CFTR Structure (365-376) M. D. Amaral, K. Kunzelmann (eds.), Cystic Fibrosis, Methods in Molecular Biology 741, Springer Science+Business Media). The effect of test compounds on thermal stability of NBD1 was evaluated by differential static light scattering (DSLS) using the Harbinger Stargazer-384 instrument (Epiphyte Three, Toronto, Canada). Test compounds were dissolved and diluted to desired concentrations in 100% DMSO. The compounds or DMSO controls (100 nL) were stamped into wells of a […] low volume optical plate (Corning Inc., Corning, NY) using the Echo 555 acoustic liquid handler (Labcyte Inc., San Jose, CA).
NBD1 protein was diluted to 0.2 mg/ml in S200 buffer (50 mM Tris-HCl, 150 mM NaCl, 5 mM MgCl2, 2 mM ATP, 2 mM DTT, pH7.6) containing 1% glycerol. 10 uL of protein solution was aliquoted into the 384-well plate harboring the test compounds and 10 uL mineral oil was overlaid onto the protein solution, using the epMotion robotic liquid handler (Eppendorf North America, Hauppauge, NY). After placing into the Stargazer instrument, the plate was heated at 1° C. per minute to 70° C. Images were captured from 25° C. to 70° C. every 0.5° C. At the end of the experiment run, instrument software integrated image files and analyzed data automatically. A […] regression curve was generated for each well, representing the increase in light scattering over time. A temperature of aggregation (Tagg) was calculated based on the inflection point of the curve. To better compare data across experiments the average Tagg for DMSO control wells was calculated and subtracted from values for wells containing compounds to obtain a “ΔTagg” value. These ΔTagg values reflect stabilizing efficacy of the compounds. As set forth in Table 2 below, an ΔTagg value less than or equal to 5° C. is marked “A”; a value above 5° C. and less than or equal to 10° C. is marked “B”; a value greater than 10° C. and less than or equal to 25° C. is marked “C”.

T1 sequence (P13569 423-646 limits assumed): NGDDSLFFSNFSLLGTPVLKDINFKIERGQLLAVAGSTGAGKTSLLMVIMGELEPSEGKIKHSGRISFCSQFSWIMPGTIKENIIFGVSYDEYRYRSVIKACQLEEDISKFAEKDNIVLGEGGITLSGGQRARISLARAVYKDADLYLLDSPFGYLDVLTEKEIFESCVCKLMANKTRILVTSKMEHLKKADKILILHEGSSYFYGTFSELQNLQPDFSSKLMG

SMILES | DSLS 3D (100 μM ΔT)
CN1CCS(=O)(=O)CCC(C)(c2cccc(CCC(=O)O)c2)c2cnc([nH]2)-c2cc(ccc2F)Oc2c(F)cc3[nH]ccc3c2CC1=O (centres unmarked) [Compound 38, 3-[3-(22,28-Difluoro-6,12-dimethyl-9,9,13-trioxo-24-oxa-9λ6-thia-3,12,19,30-tetrazapentacyclo[23.3.1.12,5.015,23.016,20]triaconta-1(29),2,4,15,17,20,22,25,27-nonaen-6-yl)phenyl]propanoic Acid] | C (a value greater than 10 °C and less than or equal to 25 °C is marked “C”)
Cn1nc2nc1-c1cc(ccc1F)[S+]([O-])c1c(F)c(F)c3[nH]ccc3c1CCS(=O)(=O)CC(C)(C)CCC[C@]2(C)c1cccc(CC2(C(=O)O)CC2)c1 (single isomer, unassigned) [Compound 303B] | A (an ΔTagg value less than or equal to 5 °C is marked “A”)
Cn1nc2nc1-c1cc(ccn1)Cc1c(F)c(F)c3[nH]ccc3c1CCS(=O)(=O)CC(C)(C)CCC[C@]2(C)c1cccc(CC(C)(C)C(=O)O)c1 [Compound 307, 3-[3-[(6R)-21,22-Difluoro-3,6,10,10-tetramethyl-12,12-dioxo-12λ6-thia-3,4,19,28,30-pentazapentacyclo[23.3.1.12,5.015,23.016,20]triaconta-1(29),2(30),4,15,17,20,22,25,27-nonaen-6-yl]phenyl]-2,2-dimethyl-propanoic Acid] | A (an ΔTagg value less than or equal to 5 °C is marked “A”)
Cn1nc2nc1-c1cc(ccn1)[S+]([O-])c1c(F)c(F)c3[nH]ccc3c1CCS(=O)(=O)CC(C)(C)CCC[C@]2(C)c1cccc(C[C@H](O)CO)c1 (single isomer, unassigned) [Compound 341] | B (a value above 5 °C and less than or equal to 10 °C is marked “B”)
C[C@H](Cc1cccc([C@@]2(C)CCCC(C)(C)CS(=O)(=O)CCc3c(c(F)c(F)c4[nH]ccc34)S(=O)(=O)c3ccc(F)c(c3)-c3nc2nn3C)c1)C(=O)O [Compound 320, (2R)-2-Methyl-3-[3-[(6R)-21,22,28-trifluoro-3,6,10,10-tetramethyl-12,12,24,24-tetraoxo-12λ6,24λ6-dithia-3,4,19,30-tetrazapentacyclo[23.3.1.12,5.015,23.016,20]triaconta-1(29),2(30),4,15,17,20,22,25,27-nonaen-6-yl]phenyl]propanoic acid] | B (a value above 5 °C and less than or equal to 10 °C is marked “B”)
C[C@@H](Cc1cccc([C@@]2(C)CCCC(C)(C)CS(=O)(=O)CCc3c(c(F)cc4[nH]ccc34)S(=O)(=O)c3cccc(c3)-c3nc2nn3C)c1)C(=O)O [Compound 357, (2S)-3-[3-[(6R)-22-Fluoro-3,6,10,10-tetramethyl-12,12,24,24-tetraoxo-12λ6,24λ6-dithia-3,4,19,30-tetrazapentacyclo[23.3.1.12,5.015,23.016,20]triaconta-1(29),2(30),4,15,17,20,22,25,27-nonaen-6-yl]phenyl]-2-methyl-propanoic Acid] | B (a value above 5 °C and less than or equal to 10 °C is marked “B”)
Cn1nc2nc1-c1cc(ccn1)Cc1c(F)cc3[nH]ccc3c1CCS(=O)(=O)CC(C)(C)CCC[C@]2(C)c1cccc(C[C@@H](O)CO)c1 [Compound 311, (2R)-3-[3-[(6R)-22-Fluoro-3,6,10,10-tetramethyl-12,12-dioxo-12λ6-thia-3,4,19,28,30-pentazapentacyclo[23.3.1.12,5.015,23.016,20]triaconta-1(29),2(30),4,15,17,20,22,25,27-nonaen-6-yl]phenyl]propane-1,2-diol] | A (an ΔTagg value less than or equal to 5 °C is marked “A”)
C[C@H](Cc1cccc(C2NCC(F)(F)CCS(=O)(=O)CCc3c(c(F)c(F)c4[nH]ccc34)Oc3ccc(F)c(c3)-c3nc2nn3C)c1)C(=O)O (mixture of isomers) [Compound 380, (2R)-2-Methyl-3-[3-(9,9,21,22,28-pentafluoro-3-methyl-12,12-dioxo-24-oxa-12λ6-thia-3,4,7,19,30-pentazapentacyclo[23.3.1.12,5.015,23.016,20]triaconta-1(29),2(30),4,15,17,20,22,25,27-nonaen-6-yl)phenyl]propanoic Acid] | A (an ΔTagg value less than or equal to 5 °C is marked “A”)
CC(Cc1cccc(C2(CNCC(F)F)CCCC(C)(C)CS(=O)(=O)CCc3c(c(F)cc4[nH]ccc34)Oc3ccc(F)c(c3)-c3nc2nn3C)c1)C(=O)O (single isomer, unassigned) [Compound 137A, 3-[3-[6-[(2,2-difluoroethylamino)methyl]-22,28-difluoro-3,10,10-trimethyl-12,12-dioxo-24-oxa-12λ6-thia-3,4,19,30-tetrazapentacyclo[23.3.1.12,5.015,23.016,20]triaconta-1(29),2(30),4,15,17,20,22,25,27-nonaen-6-yl]phenyl]-2-methyl-propanoic Acid] | C (a value greater than 10 °C and less than or equal to 25 °C is marked “C”)
C[C@H](Cc1cccc([C@@]2(C)CCCC(C)(C)CS(=O)(=O)CC(N(C)C)c3c(c(F)c(F)c4[nH]ccc34)Oc3ccc(F)c(c3)-c3nc2nn3C)c1)C(=O)N(C)C (single isomer, unassigned) [Compound 367B] | A (an ΔTagg value less than or equal to 5 °C is marked “A”)
Cc1onc(NC(=O)[C@H](C)Cc2cccc([C@@]3(C)CCCC(C)(C)CS(=O)(=O)CCc4c(c(F)c(F)c5[nH]ccc45)Oc4ccc(F)c(c4)-c4nc3nn4C)c2)c1C [Compound 384, (2R)—N-(4,5-Dimethylisoxazol-3-yl)-2-methyl-3-[3-[(6R)-21,22,28-trifluoro-3,6,10,10-tetramethyl-12,12-dioxo-24-oxa-12λ6-thia-3,4,19,30-tetrazapentacyclo[23.3.1.12,5.015,23.016,20]triaconta-1(29),2(30),4,15,17,20,22,25,27-nonaen-6-yl]phenyl]propenamide] | A (an ΔTagg value less than or equal to 5 °C is marked “A”)
C[C@H](Cc1cccc([C@@]2(C)CCCC(C)(C)CS(=O)(=O)CC(N(C)C)c3c(c(F)c(F)c4[nH]ccc34)Oc3ccc(F)c(c3)-c3nc2nn3C)c1)C(=O)N(C)C (single isomer, unassigned) [Compound 367A] | A (an ΔTagg value less than or equal to 5 °C is marked “A”)
C[C@H](Cc1cccc([C@@]2(C)CCCC(C)(C)CS(=O)(=O)CCc3c(c(F)c(F)c4[nH]cc(F)c34)Oc3ccc(F)c(c3)-c3nc2nn3C)c1)C(=O)O [Compound 345, (2R)-2-Methyl-3-[3-[(6R)-17,21,22,28-tetrafluoro-3,6,10,10-tetramethyl-12,12-dioxo-24-oxa-12λ6-thia-3,4,19,30-tetrazapentacyclo[23.3.1.12,5.015,23.016,20]triaconta-1(29),2(30),4,15,17,20,22,25,27-nonaen-6-yl]phenyl]propanoic Acid] | B (a value above 5 °C and less than or equal to 10 °C is marked “B”)
C[C@@H](Cc1cncc(C2(C)CCCC(C)(C)CS(=O)(=O)CCc3c(c(F)cc4[nH]ccc34)Oc3ccnc(c3)-c3nc2nn3C)c1)C(=O)O (single isomer, unassigned) [Compound 299B] | B (a value above 5 °C and less than or equal to 10 °C is marked “B”)
Cn1nc2nc1-c1cc(ccn1)Sc1c(F)c(F)c3[nH]ccc3c1CCS(=O)(=O)CC(C)(C)CCC[C@]2(C)c1cccc(CC2(C(=O)O)CC2)c1 [Compound 308, 1-[[3-[(6R)-21,22-difluoro-3,6,10,10-tetramethyl-12,12-dioxo-12λ6,24-dithia-3,4,19,28,30-pentazapentacyclo[23.3.1.12,5.015,23.016,20]triaconta-1(29),2(30),4,15,17,20,22,25,27-nonaen-6-yl]phenyl]methyl]cyclopropanecarboxylic acid] | B (a value above 5 °C and less than or equal to 10 °C is marked “B”)
COC(=O)[C@@H](C)Cc1cccc([C@@]2(C)CCCC(C)(C)CS(=O)(=O)CCc3c[nH]c4cc(F)c(cc34)Sc3ccc(F)c(c3)-c3nc2nn3C)c1 [Compound 354, Methyl (2S)-3-[3-[(12R)-6,26-difluoro-9,12,16,16-tetramethyl-18,18-dioxo-2,18λ6-dithia-9,10,23,29-tetrazapentacyclo[19.5.2.13,7.18,11.024,28]triaconta-1(26),3,5,7(30),8(29),10,21,24,27-nonaen-12-yl]phenyl]-2-methyl-propanoate] | A (an ΔTagg value less than or equal to 5 °C is marked “A”)
CC1c2ccnc(c2)-c2nc(nn2C)[C@@](C)(c2cccc(CC(C)(C)C(=O)O)c2)CCCC(C)(C)CS(=O)(=O)CCc2c1c(F)c(F)c1[nH]ccc21 (single isomer, unassigned) [Compound 318A] | A (an ΔTagg value less than or equal to 5 °C is marked “A”)
